According to patent US12320800B2, “High-throughput automation of organoids for identifying therapeutic strategies” (UNIVERSITY OF WASHINGTON, priority 2018, dated 2025):
In brackets after ≈: the same amount, converted by molar mass.

Legend:
[1] = system: PKD1−/− and PKD2−/− mutant organoids; assay: Prophylactic effect of myosin activators on cyst formation in PKD organoids in suspension; assay type: cell-based, human
Excerpt: Cyst formation. In adherent cultures (untreated), ‘cysts’ were identified as large, balloon-like, translucent structures that swayed in response to agitation. Flat rings and dilated tubules were not counted as cysts and occasionally appeared even in non-PKD controls. […] Wells were imaged using a Nikon TiE inverted wide-field microscope and cysts were quantified using ImageJ cell counter. To generate large cysts in suspension, adherent organoids were microdissected with a 23-gauge syringe needle from 24-well plates on an inverted phase-contrast microscope, and carefully transferred using a transfer pipette into a low-adhesion 6-well plate (Corning) containing 2 ml RB. The organoids were isolated on the twenty-first day of differentiation, before cysts formed. RB media was changed by gravity every three days, and cystogenesis was assessed at two weeks after replating.
EMD was efficient at rescuing cyst formation at the lowest dose tested (3 μM) and worked in both PKD1^−/− and PKD2^−/− mutant organoids.

late-stage PKD organoids = assay: Regression of pre-existing cysts in late-stage PKD organoids; assay type: cell-based, human; conditions: one week
Excerpt: Reduction of pre-existing cysts would be a major advantage over tolvaptan. In an acute setting, EMD could be used to reduce pain from swollen cysts, and in a chronic setting it could potentially reverse the course of disease.

PKD organoids = assay: Live-dead viability analysis of PKD organoids after EMD treatment; assay type: cell-based, human; conditions: 10 μM for two weeks
Description: To assess potential toxicity in human organoids, morphology was examined by phase-contrast microscopy during the treatment time course and performed a live-dead analysis of organoids at the endpoint of treatment (10 μM EMD for two weeks).

PKD1RC/RC mouse = assay: EMD pilot trial in PKD1RC/RC mouse; assay type: in vivo; conditions: for survival, distress and adverse effects: 5 mg/kg
Description: Efficacy In Vivo: To reproduce EMD's effects in an animal model, small pilot trial was performed in the PKD1RC/RC mouse. Animals at five months of age, a time point where cysts have already formed, were injected intraperitoneally with EMD four times over 2.5 weeks (FIG. 24A). EMD was dissolved in 400 μL PBS solution at 5 mg/kg (˜25 μM in mouse blood).
These animals were sacrificed and analyzed their kidney tissue.

myosin motor domain = conditions: allosteric pocket of the myosin motor domain; cited from earlier work
β-cardiac myosin = β-cardiac myosin (Homo sapiens, UniProt P12883); conditions: read-out: AC50, actomyosin ATPase activity; cited from earlier work
skeletal muscle myosin = conditions: read-out: AC50, actomyosin ATPase activity; cited from earlier work
non-cardiac myosin II = conditions: cited from earlier work
myosin = conditions: Table 5 listing; cited from earlier work
[2] = canines, orally administered, optimized for dissolution; cited from earlier work
liver cells = conditions: in vitro; cited from earlier work
[3] = cited from earlier work
[4] = expected value, WT control or EMD, Aim 1
[5] = 5 mg/kg intraperitoneally, four times over 2.5 weeks
[6] = high dose (5 mg/kg) applied repeatedly

β-cardiac myosin, sequence (P12883 whole entry): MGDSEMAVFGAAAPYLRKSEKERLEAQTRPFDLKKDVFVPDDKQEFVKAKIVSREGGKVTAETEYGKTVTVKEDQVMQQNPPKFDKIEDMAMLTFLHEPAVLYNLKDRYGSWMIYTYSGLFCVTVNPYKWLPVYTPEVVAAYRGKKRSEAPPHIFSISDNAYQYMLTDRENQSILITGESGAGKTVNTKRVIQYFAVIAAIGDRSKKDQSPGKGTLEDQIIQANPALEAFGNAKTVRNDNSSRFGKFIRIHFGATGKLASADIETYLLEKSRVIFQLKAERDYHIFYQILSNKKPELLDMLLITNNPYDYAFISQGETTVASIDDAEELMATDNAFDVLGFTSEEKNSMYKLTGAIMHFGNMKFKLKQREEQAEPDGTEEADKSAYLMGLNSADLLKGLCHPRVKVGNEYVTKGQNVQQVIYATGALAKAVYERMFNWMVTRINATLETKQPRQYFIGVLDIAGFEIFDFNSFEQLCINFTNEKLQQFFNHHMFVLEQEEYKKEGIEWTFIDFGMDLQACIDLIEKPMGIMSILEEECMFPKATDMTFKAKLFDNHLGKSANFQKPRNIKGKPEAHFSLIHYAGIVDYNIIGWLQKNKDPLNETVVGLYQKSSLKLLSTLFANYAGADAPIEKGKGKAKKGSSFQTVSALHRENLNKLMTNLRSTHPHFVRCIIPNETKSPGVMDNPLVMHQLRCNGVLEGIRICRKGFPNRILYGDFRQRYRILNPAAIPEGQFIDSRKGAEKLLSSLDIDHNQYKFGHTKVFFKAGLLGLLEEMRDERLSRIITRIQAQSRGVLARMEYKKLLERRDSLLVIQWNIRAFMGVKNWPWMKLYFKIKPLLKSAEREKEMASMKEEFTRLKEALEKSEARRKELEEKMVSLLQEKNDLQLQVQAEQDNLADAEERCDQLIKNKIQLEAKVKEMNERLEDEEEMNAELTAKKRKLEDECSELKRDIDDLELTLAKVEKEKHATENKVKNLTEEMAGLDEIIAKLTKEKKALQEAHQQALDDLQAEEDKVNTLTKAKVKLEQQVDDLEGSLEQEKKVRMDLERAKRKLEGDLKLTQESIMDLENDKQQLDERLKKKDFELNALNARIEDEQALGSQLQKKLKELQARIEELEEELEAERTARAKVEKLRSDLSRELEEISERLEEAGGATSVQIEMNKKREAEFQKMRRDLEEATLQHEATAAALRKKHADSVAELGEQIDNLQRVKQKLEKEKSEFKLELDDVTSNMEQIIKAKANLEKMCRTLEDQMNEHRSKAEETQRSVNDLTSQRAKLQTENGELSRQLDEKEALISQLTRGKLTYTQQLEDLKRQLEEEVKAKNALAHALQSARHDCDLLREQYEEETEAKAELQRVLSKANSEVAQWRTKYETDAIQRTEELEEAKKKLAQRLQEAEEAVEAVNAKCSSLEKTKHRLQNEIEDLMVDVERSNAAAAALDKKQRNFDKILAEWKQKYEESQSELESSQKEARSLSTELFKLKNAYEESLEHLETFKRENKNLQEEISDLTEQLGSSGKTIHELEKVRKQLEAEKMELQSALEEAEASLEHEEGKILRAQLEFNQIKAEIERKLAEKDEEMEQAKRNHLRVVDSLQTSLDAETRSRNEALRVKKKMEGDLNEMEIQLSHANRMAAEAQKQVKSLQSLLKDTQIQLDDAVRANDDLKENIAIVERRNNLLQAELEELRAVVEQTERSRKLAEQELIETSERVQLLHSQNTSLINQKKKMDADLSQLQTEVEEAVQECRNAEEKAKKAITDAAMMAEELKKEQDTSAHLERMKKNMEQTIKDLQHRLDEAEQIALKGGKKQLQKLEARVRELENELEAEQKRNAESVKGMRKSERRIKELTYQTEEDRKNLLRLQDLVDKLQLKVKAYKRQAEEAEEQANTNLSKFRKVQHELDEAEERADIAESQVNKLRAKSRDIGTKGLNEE
β-cardiac myosin, sequence (P08590 whole entry partner): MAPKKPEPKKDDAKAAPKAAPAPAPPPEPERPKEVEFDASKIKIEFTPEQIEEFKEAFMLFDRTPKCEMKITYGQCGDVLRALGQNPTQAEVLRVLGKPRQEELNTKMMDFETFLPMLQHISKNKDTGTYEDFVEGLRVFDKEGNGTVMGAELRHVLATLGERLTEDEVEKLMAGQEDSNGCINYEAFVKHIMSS

## COc1ccc(C(=O)N2CCCc3cc(C4=NNC(=O)SC4C)ccc32)cc1OC (single isomer, unassigned; (+)) [EMD, (+)-5-(1-(3,4-Dimethoxybenzoyl)-1,2,3,4-tetrahydroquinolin-6-yl)-6-methyl-3,6-dihydro-2H-1,3,4-thiadiazin-2-one]
[1]; PKD1−/− and PKD2−/− mutant organoids
  lowest dose tested, efficient at rescuing cyst formation: 3 µM
[1]; [4]
  Cyst diameter (mm): 0.12 ± 0.04 mm
  Cystic organoids (%): 15 ± 6%
[1]; pre-cystic organoids in suspension, versus untreated controls
  formation and size of resultant cysts: effectively reduced the formation and size of the resultant cysts
[1]; with blebbistatin
  efficacy on cysts in the presence of blebbistatin: effective even in the presence of blebbistatin
late-stage PKD organoids; late-stage PKD organoids (day 37), 5 μM
  size of pre-formed cysts: acute reduction in the size of pre-formed cysts
late-stage PKD organoids; late-stage PKD organoids
  toxicity at these doses: No overt toxicity
PKD organoids
  toxicity (phase-contrast morphology and live-dead analysis): no significant toxicity
PKD1RC/RC mouse; [5]
  blood urea nitrogen levels (BUN): reduced
  kidney weight: reduced
PKD1RC/RC mouse; 5 mg/kg intraperitoneally, four times over 2.5 weeks, five months of age
  superficial (renal cortical) cysts by gross morphology: noticeably reduced superficial (renal cortical) cysts
PKD1RC/RC mouse; [4]
  BUN: 20 ± 5 mg/dL
  kidney weight: 0.30 ± 0.1 g
PKD1RC/RC mouse; expected value, WT control or EMD, Aim 2
  alpha-SMA+ area (%): 25 ± 4%
PKD1RC/RC mouse; [6]
  fibrosis in the kidneys: No fibrosis was observed
  survival, distress and adverse effects: no adverse effects or mortality
PKD1RC/RC mouse; mouse, in vivo
  survival, distress and adverse effects: all animals survived, and none showed any signs of distress
PKD1RC/RC mouse; treated kidneys
  acute tubular necrosis, proximal tubules (LTL+): no evidence of acute tubular necrosis
  cyst size in kidney sections: smaller cysts
  expression of smooth muscle alpha-actin: reduced expression
Myosin motor domain
  Kd: 7.3 µM
β-cardiac myosin
  AC50: 7 µM
Skeletal muscle myosin
  AC50: 15.1 µM
non-cardiac myosin II
  increase of non-cardiac myosin II activity: three-fold
myosin
  effect: ↑ myosin
[2]
  Tmax: ~2.5 h
  average Cmax: ~40 ng/mL
Liver cells
  metabolism by liver cells: metabolized by liver cells into demethylated and/or hydroxylated forms by CYP-dependent mechanisms
[3]
  aqueous solubility: 5 µg/mL (≈ 11.8 µM)
